Data published in US12583849B2, “KCNT1 inhibitors and methods of use” (Praxis Precision Medicines, Inc., priority 2020, dated 2026).

Target: T1, KCNT1 (KNa1.1, Slack) (Homo sapiens, UniProt Q5JUK3)
T1 construct: expressed in transfected cells; host or cells: HEK-TREX (tetracycline-inducible cell line)
T1 sequence (Q5JUK3 1-1230): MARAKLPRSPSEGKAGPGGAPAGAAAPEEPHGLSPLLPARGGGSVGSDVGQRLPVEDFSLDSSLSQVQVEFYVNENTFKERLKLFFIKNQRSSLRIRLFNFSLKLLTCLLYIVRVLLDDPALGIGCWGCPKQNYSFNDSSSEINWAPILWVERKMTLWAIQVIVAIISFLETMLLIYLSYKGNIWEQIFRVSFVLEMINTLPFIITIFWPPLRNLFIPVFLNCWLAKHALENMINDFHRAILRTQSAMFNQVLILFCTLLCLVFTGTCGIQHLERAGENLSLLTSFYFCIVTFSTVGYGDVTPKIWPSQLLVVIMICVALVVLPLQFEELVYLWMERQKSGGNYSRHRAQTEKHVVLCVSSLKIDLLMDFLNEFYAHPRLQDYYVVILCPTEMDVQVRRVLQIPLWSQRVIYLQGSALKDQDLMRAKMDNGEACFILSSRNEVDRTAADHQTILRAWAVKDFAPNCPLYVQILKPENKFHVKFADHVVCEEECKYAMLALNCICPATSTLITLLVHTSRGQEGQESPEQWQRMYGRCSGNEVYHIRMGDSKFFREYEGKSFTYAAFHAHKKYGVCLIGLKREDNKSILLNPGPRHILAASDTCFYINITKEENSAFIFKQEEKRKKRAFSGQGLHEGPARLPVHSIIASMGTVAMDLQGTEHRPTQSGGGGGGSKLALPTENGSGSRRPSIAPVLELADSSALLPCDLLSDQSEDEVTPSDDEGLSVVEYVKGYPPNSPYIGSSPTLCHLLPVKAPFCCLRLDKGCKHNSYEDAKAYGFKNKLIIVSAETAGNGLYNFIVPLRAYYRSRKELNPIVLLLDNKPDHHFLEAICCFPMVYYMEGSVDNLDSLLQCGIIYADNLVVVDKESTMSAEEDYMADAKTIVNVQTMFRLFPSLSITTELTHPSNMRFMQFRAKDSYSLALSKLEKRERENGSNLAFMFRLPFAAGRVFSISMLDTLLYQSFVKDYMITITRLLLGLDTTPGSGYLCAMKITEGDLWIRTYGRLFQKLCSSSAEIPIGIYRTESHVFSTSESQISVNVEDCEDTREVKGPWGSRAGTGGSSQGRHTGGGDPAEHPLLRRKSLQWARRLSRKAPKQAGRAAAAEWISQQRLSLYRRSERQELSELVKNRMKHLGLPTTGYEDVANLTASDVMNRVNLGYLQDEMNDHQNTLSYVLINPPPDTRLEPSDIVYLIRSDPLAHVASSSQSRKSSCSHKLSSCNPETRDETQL
Experiment: KCNT1-WT-Basal Patch Clamp Assay
Type: cell-based
Conditions: tetracycline inducible cell line (HEK-TREX); SyncroPatch 384PE automated patch clamp, perforated patch mode, room temperature, step from -80 mV to 0 mV
How it was run: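 Tetracycline-inducible HEK-TREX cells expressing human KCNT1, recorded by automated perforated patch clamp (10 μM escin) at room temperature, with 4 mM external K+ at pH 7.4. Mean current taken during a 100 ms step from −80 mV to 0 mV, averaged over 3 sweeps. IC50 from Hill fit of % inhibition; otherwise % inhibition at top concentration.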

| Structure (SMILES) | IC50 |
| --- | --- |
| CC(NC(=O)c1ccc2c(c1)OCCO2)c1nc(-c2cccc(F)c2)no1 (centres unmarked) [Compound I-51, N-[1-[3-(3-fluorophenyl)-1,2,4-oxadiazol-5-yl]ethyl]-2,3-dihydro-1,4-benzodioxine-6-carboxamide] | 1000 to 20000 nM |
| CC[C@H](NC(=O)Cc1ccccc1)c1nc(-c2ccnc(C(F)(F)F)c2)no1 [Compound I-15, (S)-2-phenyl-N-(1-(3-(2-(trifluoromethyl)pyridin-4-yl)-1,2,4-oxadiazol-5-yl)propyl)acetamide] | ≤ 1000 nM |
| CC[C@H](NC(=O)C1CCCCC1)c1nc(-c2ccnc(C(F)(F)F)c2)no1 [Compound I-20, (S)—N-(1-(3-(2-(trifluoromethyl)pyridin-4-yl)-1,2,4-oxadiazol-5-yl)propyl)cyclohexanecarboxamide] | ≤ 1000 nM |
| C[C@H](NC(=O)C1(C#N)CC1)c1nc(-c2ccnc(C(F)(F)F)c2)no1 [Compound I-32, (S)-1-cyano-N-(1-(3-(2-(trifluoromethyl)pyridin-4-yl)-1,2,4-oxadiazol-5-yl)ethyl)cyclopropane-1-carboxamide] | ≥ 20000 nM |
| CC1CCCC1C(=O)N[C@@H](C)c1nc(-c2ccnc(C(F)(F)F)c2)no1 (stereo partly drawn) [Compound I-30, 2-methyl-N—((S)-1-(3-(2-(trifluoromethyl)pyridin-4-yl)-1,2,4-oxadiazol-5-yl)ethyl)cyclopentane-1-carboxamide] | 1000 to 20000 nM |
| C[C@H](NC(=O)c1ccncc1)c1nc(-c2ccnc(C(F)(F)F)c2)no1 [Compound I-6, (S)—N-(1-(3-(2-(trifluoromethyl)pyridin-4-yl)-1,2,4-oxadiazol-5-yl)ethyl)isonicotinamide] | ≥ 20000 nM |
| C[C@H](NC(=O)c1ccccc1)c1nc(-c2ccnc(C(F)(F)F)c2)no1 [Compound I-8, (S)—N-(1-(3-(2-(trifluoromethyl)pyridin-4-yl)-1,2,4-oxadiazol-5-yl)ethyl)benzamide] | ≤ 1000 nM |
| C[C@H](NC(=O)c1ccc(C(F)(F)F)cn1)c1nc(-c2ccnc(C(F)(F)F)c2)no1 [Compound I-1, (S)-5-(trifluoromethyl)-N-(1-(3-(2-(trifluoromethyl)pyridin-4-yl)-1,2,4-oxadiazol-5-yl)ethyl)picolinamide] | 1000 to 20000 nM |
| C[C@H](NC(=O)c1ccc(Br)s1)c1nc(-c2ccnc(C3CC3)c2)no1 [Compound I-57, (S)-5-bromo-N-(1-(3-(2-cyclopropylpyridin-4-yl)-1,2,4-oxadiazol-5-yl)ethyl)thiophene-2-carboxamide] | ≤ 1000 nM |
| C[C@H](NC(=O)Cc1ccccc1)c1nc(-c2ccnc(C3CC3)c2)no1 [Compound I-42, (S)—N-(1-(3-(2-cyclopropylpyridin-4-yl)-1,2,4-oxadiazol-5-yl)ethyl)-2-phenylacetamide] | ≤ 1000 nM |
| C[C@H](NC(=O)[C@H](C)c1ccccc1)c1nc(-c2ccnc(C(F)(F)F)c2)no1 [Compound I-17, (R)-2-phenyl-N—((S)-1-(3-(2-(trifluoromethyl)pyridin-4-yl)-1,2,4-oxadiazol-5-yl)ethyl)propanamide] | ≤ 1000 nM |

Continued, values first:

| IC50 | Structure (SMILES) |
| --- | --- |
| ≤ 1000 nM | COc1ccccc1C(=O)N[C@@H](C)c1nc(-c2ccnc(C3CC3)c2)no1 [Compound I-75, N-[(1S)-1-[3-(2-cyclopropyl-4-pyridyl)-1,2,4-oxadiazol-5-yl]ethyl]-2-methoxy-benzamide] |
| ≤ 1000 nM | C[C@H](NC(=O)c1cccc(F)c1)c1nc(-c2ccnc(C3CC3)c2)no1 [Compound I-89, (S)—N-(1-(3-(2-cyclopropylpyridin-4-yl)-1,2,4-oxadiazol-5-yl)ethyl)-3-fluorobenzamide] |
| ≤ 1000 nM | C[C@H](NC(=O)c1cccc(C#N)c1)c1nc(-c2ccnc(C3CC3)c2)no1 [Compound I-88, (S)-3-cyano-N-(1-(3-(2-cyclopropylpyridin-4-yl)-1,2,4-oxadiazol-5-yl)ethyl)benzamide] |
| ≥ 20000 nM | C[C@H](NC(=O)C1CCC(O)CC1)c1nc(-c2ccnc(C(F)(F)F)c2)no1 (single isomer, unassigned) [Compound I-78] |
| 1000 to 20000 nM | C[C@H](NC(=O)C12CC(C)(C1)C2)c1nc(-c2ccnc(C(F)(F)F)c2)no1 [Compound I-72, 3-methyl-N-[(1S)-1-[3-[2-(trifluoromethyl)-4-pyridyl]-1,2,4-oxadiazol-5-yl]ethyl]bicyclo[1.1.1]pentane-1-carboxamide] |
| ≥ 20000 nM | C[C@H](NC(=O)C1CCN(C)CC1)c1nc(-c2ccnc(C(F)(F)F)c2)no1 [Compound I-65, (S)-1-methyl-N-(1-(3-(2-(trifluoromethyl)pyridin-4-yl)-1,2,4-oxadiazol-5-yl)ethyl)piperidine-4-carboxamide] |
| ≤ 1000 nM | C[C@H](NC(=O)c1ccccc1Cl)c1nc(-c2ccnc(C3CC3)c2)no1 [Compound I-80, 2-chloro-N-[(1S)-1-[3-(2-cyclopropyl-4-pyridyl)-1,2,4-oxadiazol-5-yl]ethyl]benzamide] |
| ≤ 1000 nM | CC(C)Oc1cc(-c2noc([C@H](C)NC(=O)N3CCOc4ccccc43)n2)ccn1 [II-4] |
| ≤ 1000 nM | C[C@H](NC(=O)c1cc(F)cc(F)c1)c1nc(-c2ccnc(C3CC3)c2)no1 [Compound I-102, (S)—N-(1-(3-(2-cyclopropylpyridin-4-yl)-1,2,4-oxadiazol-5-yl)ethyl)-3,5-difluorobenzamide] |
